Measured values taken from PubChem BioAssay AID192 (DTP/NCI, 2004).
Several values for one entry are separate records, joined by “and”; a condition that tells them apart may be missing. Identical values can stand only once. Toxic doses and inconclusive results are not listed.

System: BDF1 mice, B16 melanoma ip, median survival T/C
Test: NCI In Vivo Anticancer Drug Screen. Data for tumor model B16 Melanoma (intraperitoneal) in B6D2F1 (BDF1) mice
Conditions: endpoint: median survival time, higher = longer survival
In short: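 Compounds were tested in mice carrying transplantable tumors. Survival or tumor size was recorded, and each value is the treated-group measurement (T) divided by that of the vehicle-treated control group (C).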

[1] = dose: 100.0 mg/kg/injection, schedule: Q04DX003 (ip), vehicle: saline with Tween-80
[2] = dose: 200.0 mg/kg/injection, schedule: Q04DX003 (ip), vehicle: saline with Tween-80
[3] = dose: 400.0 mg/kg/injection, schedule: Q04DX003 (ip), vehicle: saline with Tween-80
[4] = dose: 12.5 mg/kg/injection, schedule: Q01DX009 (ip), vehicle: Klucel (hydroxypropylcellulose) (HPC)
[5] = dose: 25.0 mg/kg/injection, schedule: Q01DX009 (ip), vehicle: Klucel (hydroxypropylcellulose) (HPC)
[6] = dose: 50.0 mg/kg/injection, schedule: Q01DX009 (ip), vehicle: Klucel (hydroxypropylcellulose) (HPC)
[7] = dose: 200.0 mg/kg/injection, schedule: Q01DX009 (ip), vehicle: saline with Tween-80
[8] = dose: 6.25 mg/kg/injection, schedule: Q01DX009 (ip), vehicle: saline
[9] = dose: 12.5 mg/kg/injection, schedule: Q01DX009 (ip), vehicle: saline
[10] = dose: 25.0 mg/kg/injection, schedule: Q01DX009 (ip), vehicle: saline
[11] = dose: 100.0 mg/kg/injection, schedule: Q01DX009 (ip), vehicle: saline with Tween-80

In the case of `O=C(OC1CC2CC=CC21)c1ccc([N+](=O)[O-])cc1` (stereo unspecified), the T/C [1] is reported as 100 % of control, the T/C [2] is reported as 94 % of control and the T/C [3] is reported as 94 % of control.
With `CCOC(=O)c1cnc(SC)nc1Nc1c(Br)cc(Br)cc1Br` the T/C [4] was 106 % of control, the T/C [5] was 109 % of control and the T/C [6] was 106 % of control.
For `CC(=O)NNC(=O)c1ccccn1`, the T/C (dose: 25.0 mg/kg/injection, schedule: Q01DX009 (ip), vehicle: saline with Tween-80) was 87 % of control, the T/C (dose: 25.0 mg/kg/injection, schedule: Q01DX009 (ip), vehicle: water) was 93 % of control and 116 % of control and the T/C (dose: 50.0 mg/kg/injection, schedule: Q01DX009 (ip), vehicle: water) was 110 % of control and 113 % of control. For the same compound, the T/C (dose: 100.0 mg/kg/injection, schedule: Q01DX009 (ip), vehicle: water) was 93 % of control and 100 % of control and the T/C [7] was 89 % of control.
For `COc1cc(CN(C)C2CCCCC2)cc(OC)c1OC`, the T/C (dose: 3.12 mg/kg/injection, schedule: Q01DX009 (ip), vehicle: saline) was 105 % of control, the T/C [8] was 102 % of control and the T/C [9] was 95 % of control. The T/C [10] was 91 % of control and the T/C (dose: 50.0 mg/kg/injection, schedule: Q01DX009 (ip), vehicle: saline) was 101 % of control.
In the case of `O=c1[nH]c(=O)n2n1CC(Br)C(Br)C2` (stereo unspecified), the T/C [1] is reported as 97 % of control, the T/C [2] is reported as 102 % of control and the T/C [3] is reported as 110 % of control.
For `O=C(Cc1ccccc1)OCCc1ccccc1`, the T/C (dose: 100.0 mg/kg/injection, schedule: Q01DX009 (ip), vehicle: Klucel (hydroxypropylcellulose) (HPC)) was 103 % of control, the T/C (dose: 200.0 mg/kg/injection, schedule: Q01DX009 (ip), vehicle: Klucel (hydroxypropylcellulose) (HPC)) was 100 % of control and the T/C (dose: 400.0 mg/kg/injection, schedule: Q01DX009 (ip), vehicle: Klucel (hydroxypropylcellulose) (HPC)) was 93 % of control.
For `O=C(O)CCS(=O)(=O)CCC(=O)O`, the T/C (dose: 50.0 mg/kg/injection, schedule: Q01DX009 (ip), vehicle: saline with Tween-80) was 102 % of control, the T/C [11] was 100 % of control and the T/C [7] was 102 % of control.
For `Nc1cc(NC(=O)c2ccc(Cl)cc2)ccc1S(=O)(=O)O`, the T/C (dose: 3.12 mg/kg/injection, schedule: Q01DX009 (ip), vehicle: Klucel (hydroxypropylcellulose) (HPC)) was 94 % of control, the T/C (dose: 6.25 mg/kg/injection, schedule: Q01DX009 (ip), vehicle: Klucel (hydroxypropylcellulose) (HPC)) was 99 % of control and the T/C [4] was 96 % of control. The T/C [5] was 98 % of control and the T/C [6] was 98 % of control.
`C/C=C/C(=O)NCC(C(C)C)/[N+]([O-])=N/O` (stereo unspecified) was tested, and the T/C [8] was 100 % of control, the T/C [9] was 104 % of control and the T/C [10] was 100 % of control.
For `S=C(NC1CCCCC1)NC1CCCCC1`, the T/C [11] was 95 % of control, the T/C [7] was 114 % of control and the T/C (dose: 400.0 mg/kg/injection, schedule: Q01DX009 (ip), vehicle: saline with Tween-80) was 90 % of control.
`COC(=O)[C@@]12OC[C@]34[C@H]([C@@H](O)[C@@H]1O)[C@@]1(C)CC(=O)C(O)=C(C)[C@@H]1C[C@H]3OC(=O)[C@H](OC(=O)/C=C(\C)C(C)C)[C@@H]24` was tested, and the T/C (dose: 0.03 mg/kg/injection, schedule: Q01DX009 (ip), vehicle: saline + alcohol) was 122 % of control, the T/C (dose: 0.12 mg/kg/injection, schedule: Q01DX009 (ip), vehicle: other) was 169 % of control and the T/C (dose: 0.12 mg/kg/injection, schedule: Q01DX009 (ip), vehicle: saline + alcohol) was 153 % of control. The T/C (dose: 0.25 mg/kg/injection, schedule: Q01DX009 (ip), vehicle: other) was 155 % of control, the T/C (dose: 0.25 mg/kg/injection, schedule: Q01DX009 (ip), vehicle: saline + alcohol) was 154 % of control and the T/C (dose: 0.5 mg/kg/injection, schedule: Q01DX009 (ip), vehicle: other) was 160 % of control. For the same compound, the T/C (dose: 0.5 mg/kg/injection, schedule: Q01DX009 (ip), vehicle: saline + alcohol) was 154 % of control and 157 % of control, the T/C (dose: 1.0 mg/kg/injection, schedule: Q01DX009 (ip), vehicle: other) was 164 % of control and the T/C (dose: 1.0 mg/kg/injection, schedule: Q01DX009 (ip), vehicle: saline + alcohol) was 158 % of control and 164 % of control. The T/C (dose: 2.0 mg/kg/injection, schedule: Q01DX009 (ip), vehicle: saline + alcohol) was 177 % of control, the T/C (dose: 125.0 micrograms/kg/injection, schedule: Q01DX009 (ip), vehicle: saline + alcohol) was 160 % of control and the T/C (dose: 250.0 micrograms/kg/injection, schedule: Q01DX009 (ip), vehicle: saline + alcohol) was 160 % of control. For the same compound, the T/C (dose: 500.0 micrograms/kg/injection, schedule: Q01DX009 (ip), vehicle: saline + alcohol) was 168 % of control, the T/C (dose: 1000.0 micrograms/kg/injection, schedule: Q01DX009 (ip), vehicle: saline + alcohol) was 164 % of control and the T/C (dose: 2000.0 micrograms/kg/injection, schedule: Q01DX009 (ip), vehicle: saline + alcohol) was 97 % of control.
